The text below walks through data of article PMC10648852, “Molecular drivers of resistance to sulbactam-durlobactam in contemporary clinical isolates of Acinetobacter baumannii” (Antimicrobial Agents and Chemotherapy, 2023).

By MIC50 is commonly meant the lowest concentration that inhibits either 50% of growth or 50% of the strains tested, depending on the study. A word on the MIC90: it is the lowest concentration that inhibits either 90% of growth or 90% of the strains tested, depending on the study.

Assay [1] concerns A. baumannii AB5075 and transposon mutants in efflux genes. In words: Broth microdilution MIC, isogenic A. baumannii transposon mutants in efflux genes. Type of assay: cell-based. The note with it: for In vitro activity (MIC): tested in duplicate; for MIC changes as compared to the parent strain: all tested efflux gene disruptions, AB5075. On the procedure:
To further assess the role of efflux in SUL-DUR activity against Acinetobacter spp., two panels of A. baumannii isogenic strains were tested. The first consisted of 7 members of an A. baumannii transposon library ([28]) with single gene disruptions in the adeABC, adeIJK, or adeT loci as compared to the parent strain, AB5075. […] This panel of strains consists of four different point mutants in AdeR and five different point mutants in AdeS, which result in the upregulation of AdeABC expression. In addition, this panel contains chromosomal deletions of adeL and adeN, which result in overexpression of AdeFGH and AdeIJK, respectively ([29]).
The parent and each isogenic mutant strain in both panels was measured for susceptibility to sulbactam, durlobactam, SUL-DUR, imipenem, and gentamicin. […].
The AB5075 parent strain as well as transposon interrupted AdeABC, AdeIJK, and AdeT were purchased from the Manoil laboratory at the University of Washington from their arrayed transposon mutant collection ([28]). The KAB1544 parent as well as efflux pump regulator mutants and deletions were constructed as previously described ([29]).
Antimicrobial susceptibility testing was performed using broth microdilution following standardized methods established by the Clinical Laboratory Standards Institute (CLSI) ([35], [36]). Quality control testing was performed as specified by CLSI using A. baumannii NCTC 13304 ([35]). MIC values were interpreted using CLSI breakpoints for all antimicrobial agents except those for which CLSI breakpoints are not available ([35]). SUL-DUR was tested as twofold dilutions of sulbactam in combination with a fixed concentration of 4 µg/mL durlobactam ([35]).
(Broth dilution looks for growth in wells or tubes with falling amounts of substance.)

Assay [2] has as its system 5,032 ABC clinical isolates. The following applies: 5,032 ABC clinical isolates 2016-2021; durlobactam fixed at 4 µg/mL in SUL-DUR; cited from earlier work.

`C[C@@H](O)[C@H]1C(=O)N2C(C(=O)O)=C(SCCN=CN)C[C@H]12` [imipenem]: the In vitro activity (MIC) in assay [1] (Parent (AB5075)) was 16 µg/mL; in assay [1] (adeA::tn in AB5075), 8 µg/mL; in assay [1] (adeB::tn in AB5075), 8 µg/mL; in assay [1] (adeC::tn in AB5075) it was 16 µg/mL; in assay [1] (adeI::tn in AB5075), 16 µg/mL; in assay [1] (adeJ::tn in AB5075), 16 µg/mL. For the same molecule, the In vitro activity (MIC) in assay [1] (adeK::tn in AB5075) is 16 µg/mL; in assay [1] (adeT::tn in AB5075) it was 8 µg/mL. In addition, the “MIC changes as compared to the parent strain” value in assay [1] is reported as not above 2 fold.
For `CC1(C)[C@H](C(=O)O)N2C(=O)C[C@H]2S1(=O)=O` [sulbactam], the In vitro activity (MIC) in assay [1] (Parent (AB5075)) is 64 µg/mL; in assay [1] (adeA::tn in AB5075) it was 32 µg/mL; in assay [1] (adeB::tn in AB5075) it was 32 µg/mL; in assay [1] (adeC::tn in AB5075), 64 µg/mL; in assay [1] (adeI::tn in AB5075), 32 µg/mL; in assay [1] (adeJ::tn in AB5075), 64 µg/mL. Moreover, the figures for the In vitro activity (MIC) in assay [1] (adeK::tn in AB5075) and in assay [1] (adeT::tn in AB5075) were 32 µg/mL and 64 µg/mL, respectively. The “MIC changes as compared to the parent strain” value in assay [1] is listed as not above 2 fold. Besides, the MIC50 in assay [2] was 8 µg/mL. Also, in assay [2], the MIC90 was 32 µg/mL.
